From US3984410A, “Isourea acetylphosphate insecticides” (priority 1975, dated 1976)
Values after ≈ are worked out from the molar mass of the structure shown.

Tests used:
Assay type in all cases: in vivo
[1] = tested on: Cabbage Looper [Trichoplusia ni (Hubner)]; assay: Cabbage Looper on dipped squash cotyledons; conditions: second-instar larvae, cotyledon dip; 48 hours plus 5 days
Protocol: (§1) Test compounds are diluted in a 50--50 acetone-water solution. Cotyledons of hyzini squash (Calabacita abobrinha), approximately 1 × 1.5 inches, are immersed in the test solutions for 2-3 seconds and placed on a wire screen to dry. The dried leaves are placed in petri dishes containing a moistened piece of filter paper and infested with five second-instar cabbage looper larvae. Mortality of the larvae is recorded 48 hours later, and a piece of synthetic media is added to dishes containing survivors. These are then held for 5 additional days to observe for any delayed effects of the test chemicals. Test concentrations range from 0.1% down to that at which approximately 50% mortality occurs.

[2] = tested on: housefly (Musca domestica L.); assay: Housefly mortality, residue on aluminum dishes; conditions: 25 3-day old female houseflies; mortality after 48 hours
Protocol: Test compounds are diluted in acetone and aliquots are pipetted onto the bottom of 55 × 15 mm aluminum dishes. To insure even spreading of the chemical on the bottom of the dishes, 1 ml of acetone containing 0.02% peanut oil is also added to each dish. After all solvents have evaporated the dishes are placed in circular cardboard cages containing 25 3-day old female houseflies. The cages are covered on the bottom with cellophane and the top with tulle netting, and each contains a sugar-water saturated cotton plug for maintenance of the flies. Mortality is recorded after 48 hours. Test levels range from 100 μg/25 F. houseflies down to that at which approximately 50% mortality occurs.

[3] = tested on: Green Peach Aphid [Myzus persicae (Sulzer)]; assay: Green Peach Aphid spray on radish plants; conditions: sprayed to runoff on radish plants; mortality after 48 hours
Protocol: Radish plants (Rhaphanus sativus), approximately 2 cm tall, are transplanted into sandy loam soil in 3-inch clay pots and infested with 25-50 green peach aphids of mixed ages. Twenty-four hours later they are sprayed, to the point of runoff, with 50--50 acetone-water solutions of the test chemicals. Treated plants are held in the greenhouse and mortality is recorded after 48 hours. Test concentrations range from 0.05% down to that at which 50% mortality occurs.

[4] = tested on: Lygus Bug [Lygus hesperus (Knight)]; assay: Lygus Bug spray; conditions: spray on adult bugs; mortality after 48 hours
Protocol: Test compounds are in a 50--50 acetone-water solution. Two cc of the solutions are sprayed through a Devilbiss type EGA hand spray gun into circular cardboard cages containing one string bean pod and ten adult lygus bugs. The test cages are covered on the bottom with cellophane and the top with tulle netting. Percent mortality is recorded 48 hours later. Test concentrations range from 0.05% down to that at which approximately 50% mortality occurs.

[5] = tested on: German Cockroach [Blattella germanica (Linne)]; assay: German Cockroach spray; conditions: spray on 1-month-old nymphs; mortality after 7 days
Protocol: Test compounds are diluted in a 50--50 acetone-water solution. Two cc of the solutions are sprayed through a DeVilbiss type EGA hand spray gun into circular cardboard cages containing 10 l-month-old German cockroach nymphs. The test cages are covered on the bottom with cellophane and the top with tulle netting. Percent mortality is recorded 7 days later. Test concentrations range from 0.1% down to that at which approximately 50% mortality occurs.

[6] = tested on: Tobacco Budworm [Heliothis virescens (F.)]; assay: Tobacco Budworm on dipped Romaine lettuce leaves; conditions: larvae, Romaine lettuce leaf dip; 48 hours plus 5 days
Protocol: as §1
The procedure is the same as that used for the cabbage looper, except that sections of Romaine lettuce (Latica sativa) leaves were used instead of cotyledons of hyzini squash.

[7] = tested on: Black Bean Aphid [Aphis fabae (Scop.)]; assay: Systemic Assay on Black Bean Aphid; conditions: 168 h, systemic, chemical in soil, mortality after 7 days, read-out: Insecticide Activity - Approximate LD50, BAS (Black Bean Aphid - systemic)
Protocol: Test chemicals are diluted in acetone and aliquots are thoroughly mixed into 500 grams of dry, sandy loam soil. The treated soil is placed in a pint ice cream carton and a nasturtium plant (Tropaeolum sp.) approximately 5 cm tall is transplanted into each carton. The plants are then infested with approximately 25 black bean aphids of mixed ages and placed in the greenhouse. Seven days later mortality is recorded. Test concentrations range from 10 PPM down to that at which approximately 50% mortality occurs.

[8] = tested on: Black Bean Aphid [Aphis fabae (Scop.)]; assay: Direct Spray Assay on Black Bean Aphid; conditions: direct spray on nasturtium plants; mortality after 7 days
Protocol: Nasturtium plants (Tropaeolum sp.), approximately 5 cm tall, are transplanted into sandy loam soil in 3-inch clay pots and infested with 25-50 black bean aphids of mixed ages. Twenty-four hours later they are sprayed, to the point of runoff, with 50--50 acetone-water solutions of the test chemicals. Treated plants are held in the greenhouse and mortality is recorded after 7 days. Test concentrations range from 0.05% down to that at which 50% mortality occurs.

[9] = tested on: Southern House Mosquito [Culex pipiens quinquefasciatus (Say)]; assay: Southern House Mosquito larvae in aqueous solution; conditions: 48 h, read-out: Insecticide Activity - Approximate LD50, MOS (Southern House Mosquito)
Protocol: Insecticidal activity is determined using third-instar larvae of the mosquito (Culex pipiens quinquefasciatus). Ten larvae are placed in a 6-ounce, number 67 Dixie wax paper cup containing 100 ml of an aqueous solution of the test chemical. The treated larvae are stored at 70°F, and 48 hours later the mortality is recorded. Test concentrations range from 0.5 PPM down to that at which approximately 50% mortality occurs.

## CCOP(=S)(OCC)SCC(=O)N=C(OC)N(CC)CC [Compound 5]
[1]
  Insecticide Activity - Approximate LD50, CL (Cabbage Looper): > .1%
[2]
  Insecticide Activity - Approximate LD50, HF (Housefly): 23 μg/25 F.
[3]
  Insecticide Activity - Approximate LD50, GPA (Green Peach Aphid): .03%
[4]
  Insecticide Activity - Approximate LD50, LB (Lygus Bug): > .05%
[5]
  Insecticide Activity - Approximate LD50, GR (German Cockroach): .1%
[6]
  Insecticide Activity - Approximate LD50, TBW (Tobacco Budworm): > .1%
[7]
  LC50: > 10 µg/mL
[8]
  Insecticide Activity - Approximate LD50, BA (Black Bean Aphid - direct spray): .001%
[9]
  LC50: > 1 µg/mL

## CCOP(=S)(OCC)SCC(=O)N=C(OC)N1CCCCC1 [Compound 3]
[1]
  Insecticide Activity - Approximate LD50, CL (Cabbage Looper): > .1%
[2]
  Insecticide Activity - Approximate LD50, HF (Housefly): 25 μg/25 F.
[3]
  Insecticide Activity - Approximate LD50, GPA (Green Peach Aphid): .008%
[4]
  Insecticide Activity - Approximate LD50, LB (Lygus Bug): .05%
[5]
  Insecticide Activity - Approximate LD50, GR (German Cockroach): > .1%
[6]
  Insecticide Activity - Approximate LD50, TBW (Tobacco Budworm): > .1%
[7]
  LC50: > 10 µg/mL
[8]
  Insecticide Activity - Approximate LD50, BA (Black Bean Aphid - direct spray): .001%
[9]
  LC50: 1 µg/mL (≈ 2.71 µM)

## CCOP(=S)(OCC)SCC(=O)N=C(OC)N(CC)c1ccccc1 [Compound 15]
[1]
  Insecticide Activity - Approximate LD50, CL (Cabbage Looper): .1%
[2]
  Insecticide Activity - Approximate LD50, HF (Housefly): 30 μg/25 F.
[3]
  Insecticide Activity - Approximate LD50, GPA (Green Peach Aphid): .03%
[4]
  Insecticide Activity - Approximate LD50, LB (Lygus Bug): > .05%
[5]
  Insecticide Activity - Approximate LD50, GR (German Cockroach): > .1%
[6]
  Insecticide Activity - Approximate LD50, TBW (Tobacco Budworm): > .1%
[7]
  LC50: 2 µg/mL (≈ 4.94 µM)
[8]
  Insecticide Activity - Approximate LD50, BA (Black Bean Aphid - direct spray): .005%
[9]
  LC50: > 1 µg/mL
